Experiments:
[1] = system: MDA-MB-453/WT cells; experiment: Cell viability (MTT), sensitization to lapatinib, MDA-MB-453/WT; format: cell-based, human; details: 24 h; for sensitization to Lapatinib treatments: Protac 10 µM, lapatinib 3-50 µM, shift of dose response curve vs vehicle; for change in viability: lapatinib 10 µM in the presence of Protac 10 µM; for CC50 vehicle /CC50 Protac ratio: lapatinib CC50 without vs with Protac 10 µM
Method: (§1) MDA-MB-231 cells were grown in DMEM media (Sigma) supplemented with 10% fetal bovine serum (FBS) (Sigma), 2 mM L-glutamine (Thermo Fisher) and 100 U/mL penicillin/ 100 ug/mL streptomycin (Thermo Fisher). MDA-MB-453 cells were grown in DMEM/F12 media (Gibco) supplemented with 10% fetal bovine serum (FBS) (Sigma), 2 mM L-glutamine (Thermo Fisher), 2.5 ug/mL amphotericin B and 100 U/mL penicillin/ 100 ug/mL streptomycin (Thermo Fisher). BT-474 cells were grown in DMEM/F12 media (Gibco) supplemented with 10% fetal bovine serum (FBS) (Sigma), 2 mM L-glutamine (Thermo Fisher), 10 ug/mL insulin, 2.5 ug/mL amphotericin B and 100 U/mL penicillin/ 100 ug/mL streptomycin (Thermo Fisher).
(§2) For cell proliferation assays, cells were plated at a density of 10,000 cells/well in a 96-well plate. […] MTT reagent was added to cell culture media. After 3 h incubation, culture medium was replaced by DMSO. MTT formazan crystals were solubilized in DMSO using a plate agitator for 30 min prior to reading absorbance at 570 nm with a SYNERGY H1 microplate reader (BioTek

[2] = system: BT-474/WT cells; experiment: Cell viability (MTT), sensitization to lapatinib, BT-474/WT; format: cell-based, human; details: 24 h; for sensitization to Lapatinib treatments: Protac 20 µM, lapatinib 0.63-30 µM; for CC50 vehicle /CC50 Protac ratio: lapatinib CC50 without vs with Protac 20 µM
Method: as §1, §2

[3] = system: BT-474/Lap cells; experiment: Cell viability (MTT), sensitization to lapatinib, BT-474/Lap; format: cell-based, human; details: 24 h; for sensitization to Lapatinib treatments: Protac 20 µM, lapatinib 0.63-30 µM, shift of dose response curve vs vehicle; for CC50 vehicle /CC50 Protac ratio: lapatinib CC50 without vs with Protac 20 µM
Method: as §1, §2

[4] = system: MDA-MB-453/Lap cells; experiment: Cell viability (MTT), sensitization to lapatinib, MDA-MB-453/Lap; format: cell-based, human; details: 24 h; for sensitization to Lapatinib treatments: Protac 10 µM, lapatinib 3-50 µM, shift of dose response curve vs vehicle; for change in viability: lapatinib 10 µM in the presence of Protac 10 µM; for CC50 vehicle /CC50 Protac ratio: lapatinib CC50 without vs with Protac 10 µM
Method: as §1, §2

[5] = target: T1, CERT (Homo sapiens, UniProt Q9Y5P4); experiment: Degradation of CERT in cultured human breast cancer cells (SDS-PAGE and immunoblot); format: cell-based; details: for degradation of CERT / levels of CERT in cells: 24 h; for degradation of CERT: immunoblot vs DMSO
T1 construct: endogenous in cells; host or cells: MDA-MB-231, MDA-MB-453 (WT and lapatinib-resistant), BT-474 (WT and lapatinib-resistant)
T1 sequence (Q9Y5P4 1-624): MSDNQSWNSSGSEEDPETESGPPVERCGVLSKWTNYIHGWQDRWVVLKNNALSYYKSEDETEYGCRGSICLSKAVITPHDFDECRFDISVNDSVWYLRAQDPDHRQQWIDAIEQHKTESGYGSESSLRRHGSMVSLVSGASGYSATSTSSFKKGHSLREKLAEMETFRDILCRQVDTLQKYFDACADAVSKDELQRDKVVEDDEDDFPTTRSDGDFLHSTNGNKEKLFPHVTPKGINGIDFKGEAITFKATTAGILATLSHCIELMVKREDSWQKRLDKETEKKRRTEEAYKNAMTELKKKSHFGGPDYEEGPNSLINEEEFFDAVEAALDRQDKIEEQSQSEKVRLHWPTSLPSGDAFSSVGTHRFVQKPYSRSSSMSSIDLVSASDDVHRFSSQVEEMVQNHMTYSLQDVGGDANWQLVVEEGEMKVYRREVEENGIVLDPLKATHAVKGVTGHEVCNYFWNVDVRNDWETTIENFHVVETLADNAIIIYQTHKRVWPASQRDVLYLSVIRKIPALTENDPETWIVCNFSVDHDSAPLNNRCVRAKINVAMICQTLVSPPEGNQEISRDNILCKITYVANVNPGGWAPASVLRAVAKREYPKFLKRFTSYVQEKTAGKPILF
Method: as §1
Then, medium was removed and cells were washed with PBS, trypsinized and the pellets were disrupted by probe sonication in a 0.25 M solution of Saccharose. An aliquot was used for protein quantification and the same amount of protein per treatment was treated with laemli buffer (95 °C/5 min). The protein extracts were analyzed by SDS-PAGE electrophoresis followed by immunoblot using the following antibodies: CERT1, Abcam Ab72536; USP14, Cell signaling CS-11931; Actin, Abcam Ab5694.
Chimeras were tested in different types of breast cancer cell lines: • MDA-MB-231, lacking the estrogen receptor (ER), progesterone receptor (PR) and human epidermal growth factor receptor-2 (HER2).

[6] = BT-474 (WT) cells, 10 µM, 20 µM per Figure 1 legend
[7] = BT-474/Lap (lapatinib resistant) cells, 1, 5, 10, 20, 30 and 40 µM, immunoblot vs DMSO (Figure 6)
[8] = MDA-MB-453/Lap (lapatinib resistant) cells, 1, 5, 10, 20, 30 and 40 µM, immunoblot vs DMSO (Figure 4)
[9] = MDA-MB-231 cells, 10 µM, time course 2, 4, 6, 8, 16 and 24 h

Structure (SMILES)	sensitization to Lapatinib treatments [1]	change in viability [1]	CC50 vehicle /CC50 Protac ratio [1]	sensitization to Lapatinib treatments [2]	CC50 vehicle /CC50 Protac ratio [2]	sensitization to Lapatinib treatments [3]	CC50 vehicle /CC50 Protac ratio [3]	sensitization to Lapatinib treatments [4]	change in viability [4]	CC50 vehicle /CC50 Protac ratio [4]	degradation of CERT [5, 6]	levels of CERT in cells [5, 7]	degradation of CERT ([5]; MDA-MB-231 cells, 10 µM)	degradation of CERT ([5]; MDA-MB-453 (WT) cells, 10 µM)	levels of CERT in cells [5, 8]	time of CERT degradation effect [5, 9]	time of maximum degradation [5, 9]
Cc1cc(C(=O)N2CCC(COC(=O)NCCOCCn3cc(CCCCCCCCC(=O)N[C@@H](CO)C[C@H](O)c4ccccc4)nn3)CC2)c(C)n1-c1ccc(F)cc1 [RBM3-413, (1-(1-(4-Fluorophenyl)-2,5-dimethyl-1H-pyrrole-3-carbonyl)piperidin-4-yl)methyl (2-(2-(4-(9-(((2R,4S)-1,4-dihydroxy-4-phenylbutan-2-yl)amino)-9-oxononyl)-1H-1,2,3-triazol-1-yl)ethoxy)ethyl)carbamate]	Sensitization was also observed, yet mildly	-38%	1.98	sensitized cells to lapatinib treatments	3.84	potent sensitization	5.56	potent sensitization	-38%	2.33	induced the degradation of CERT	treatments have reduced the levels of CERT in cells	induced the degradation of CERT	induced the degradation of CERT	treatments have reduced the levels of CERT in cells	–	–
Cc1cc(C(=O)N2CCC(COC(=O)NCCOCCOCCn3cc(CCCCCCCCC(=O)N[C@@H](CO)C[C@H](O)c4ccccc4)nn3)CC2)c(C)n1-c1ccc(F)cc1 [RBM3-386, (1-(1-(4-Fluorophenyl)-2,5-dimethyl-1H-pyrrole-3-carbonyl)piperidin-4-yl)methyl (2-(2-(2-(4-(9-(((2R,4S)-1,4-dihydroxy-4-phenylbutan-2-yl)amino)-9-oxononyl)-1H-1,2,3-triazol-1-yl)ethoxy)ethoxy)ethyl) carbamate]	–	–	–	–	–	–	–	–	–	–	induced the degradation of CERT	treatments have reduced the levels of CERT in cells	induced the degradation of CERT	induced the degradation of CERT	treatments have reduced the levels of CERT in cells	–	–
Cc1cc(C(=O)N2CCC(COC(=O)NCCOCCOCCOCCn3cc(CCCCCCCCC(=O)N[C@@H](CO)C[C@H](O)c4ccccc4)nn3)CC2)c(C)n1-c1ccc(F)cc1 [RBM3-368]	–	–	–	–	–	–	–	–	–	–	induced the degradation of CERT	treatments have reduced the levels of CERT in cells	induced the degradation of CERT	induced the degradation of CERT	treatments have reduced the levels of CERT in cells	16 to 24 h	24 h
Cc1cc(C(=O)N2CCC(COC(=O)NCCOCCOCCOCCOCCOCCn3cc(CCCCCCCCC(=O)N[C@@H](CO)C[C@H](O)c4ccccc4)nn3)CC2)c(C)n1-c1ccc(F)cc1 [RBM3-419, (1-(1-(4-Fluorophenyl)-2,5-dimethyl-1H-pyrrole-3-carbonyl)piperidin-4-yl)methyl (17-(4-(9-(((2R,4S)-1,4-dihydroxy-4-phenylbutan-2-yl)amino)-9-oxononyl)-1H-1,2,3-triazol-1-yl)-3,6,9,12,15-pentaoxaheptadecyl)carbamate]	–	–	–	–	–	–	–	–	–	–	induced the degradation of CERT	treatments have reduced the levels of CERT in cells	induced the degradation of CERT	induced the degradation of CERT	treatments have reduced the levels of CERT in cells	–	–
Cc1cc(C(=O)N2CCC(Cn3cc(CCCCCCCCC(=O)N[C@@H](CO)C[C@H](O)c4ccccc4)nn3)CC2)c(C)n1-c1ccc(F)cc1 [RBM3-395, N-((2R,4S)-1,4-Dihydroxy-4-phenylbutan-2-yl)-9-(1-((1-(1-(4-fluorophenyl)-2,5-dimethyl-1H-pyrrole-3-carbonyl)piperidin-4-yl)methyl)-1H-1,2,3-triazol-4-yl)nonanamide]	Sensitization was also observed, yet mildly	-38%	2.27	sensitized cells to lapatinib treatments	6.22	potent sensitization	5.23	potent sensitization	-38%	2.05	induced the degradation of CERT	treatments have reduced the levels of CERT in cells	induced the degradation of CERT	induced the degradation of CERT	treatments have reduced the levels of CERT in cells	–	–
